The values below come from patent US20240009271A1, “METHODS OF TREATING METASTATIC CANCERS USING AXL DECOY RECEPTORS” (Aravive Inc, priority 2017, published 2024).

This experiment concerns MDA-MB-231 Axl+ TNBC cells. Description: MDA-MB-231 Matrigel cell invasion assay. The class given is cell-based. The settings on record: Homo sapiens. The method, then:
Inhibition of GAS6-induced invasion/migration was evaluated in models for triple-negative breast (MDA-MB-231) and ovarian (OVCAR8) cancers using the Corning® Matrigel® or collagen invasion assays, respectively, and using an AXL decoy receptor which comprises a soluble AXL variant polypeptide comprising amino acid changes relative to wild-type AXL sequence (SEQ ID NO:1) at the following positions: (a) glycine 32; (b) aspartic acid 87; (c) alanine 72; (d) valine 92; and (e) glycine 127, lacking the AXL transmembrane domain, lacking a functional FN domain, and comprising an Fc domain linked to the soluble AXL variant polypeptide by a peptide linker (hereinafter referred to as AVB-S6-500).
AVB-S6-500 and MDA-MB-231 Axl^+ TNBC cells in serum free media were seeded in the top of a Matrigel-coated Boyden Chamber. Media with serum as a chemo-attractant was added to the chamber bottom. After 24 hours incubation, the number of cells that migrated across the Matrigel were counted and expressed as the fraction of invasive cells relative to a PBS control (FIG. 1A).
Representative images from the AVB-S6-500 treated MDA-MB-231 cells are depicted in FIG. 2.

The compound `COc1cc(Nc2c(C#N)cnc3cc(OCCCN4CCN(C)CC4)c(OC)cc23)c(Cl)cc1Cl` [Bosutinib, bosutinib] came in with an IC50 of 24 nM.

What is called IC50 is the concentration that gives 50% inhibition.
